Data as given in ChEMBL document CHEMBL2412957, “Synthesis and SAR of 4-aminocyclopentapyrrolidines as orally active N-type calcium channel inhibitors for inflammatory and neuropathic pain” (Bioorg Med Chem Lett, 2013).
≈ marks a conversion by molar mass, not a printed value.

tested on: not listed separately; assay: Ratio of drug level brain to plasma in po dosed rat after 60 mins; type: ADME, organism-based; conditions: read-out: BPR

Compound | Kp at 1 h
CC(C)N[C@@H](CC(C)(C)C)C(=O)N[C@H]1CC[C@@H]2CN(S(=O)(=O)c3ccc(C(F)(F)F)cc3)C[C@@H]21 | 0.9

tested on: not listed separately; assay: Plasma clearance in rat at 5 umol/kg, iv and 5 umol/kg, po; type: ADME, organism-based; conditions: not given

Compound | clearance
CN[C@@H](CC(C)C)C(=O)N[C@H]1CC[C@@H]2CN(c3ccc(C(F)(F)F)cc3)C[C@@H]21 | 21.7 mL/min/kg

tested on: Rattus norvegicus; assay: Oral bioavailability in rat at 30 umol/kg; type: ADME, organism-based; conditions: in vivo, at 30 µmol/kg

Compound | F
CC(C)N[C@@H](CC(C)(C)C)C(=O)N[C@H]1CC[C@@H]2CN(S(=O)(=O)c3ccc(C(F)(F)F)cc3)C[C@@H]21 | 46.7%

target: T1, Voltage-dependent N-type calcium channel subunit alpha-1B (Rattus norvegicus, UniProt Q02294); assay: Inhibition of rat N-type Cav2.2 channel expressed in HEK293 cells under depolarized condition by whole cell patch-clamp manual electrophysiology assay; type: cell-based; conditions: not given
T1 sequence (Q02294 whole entry): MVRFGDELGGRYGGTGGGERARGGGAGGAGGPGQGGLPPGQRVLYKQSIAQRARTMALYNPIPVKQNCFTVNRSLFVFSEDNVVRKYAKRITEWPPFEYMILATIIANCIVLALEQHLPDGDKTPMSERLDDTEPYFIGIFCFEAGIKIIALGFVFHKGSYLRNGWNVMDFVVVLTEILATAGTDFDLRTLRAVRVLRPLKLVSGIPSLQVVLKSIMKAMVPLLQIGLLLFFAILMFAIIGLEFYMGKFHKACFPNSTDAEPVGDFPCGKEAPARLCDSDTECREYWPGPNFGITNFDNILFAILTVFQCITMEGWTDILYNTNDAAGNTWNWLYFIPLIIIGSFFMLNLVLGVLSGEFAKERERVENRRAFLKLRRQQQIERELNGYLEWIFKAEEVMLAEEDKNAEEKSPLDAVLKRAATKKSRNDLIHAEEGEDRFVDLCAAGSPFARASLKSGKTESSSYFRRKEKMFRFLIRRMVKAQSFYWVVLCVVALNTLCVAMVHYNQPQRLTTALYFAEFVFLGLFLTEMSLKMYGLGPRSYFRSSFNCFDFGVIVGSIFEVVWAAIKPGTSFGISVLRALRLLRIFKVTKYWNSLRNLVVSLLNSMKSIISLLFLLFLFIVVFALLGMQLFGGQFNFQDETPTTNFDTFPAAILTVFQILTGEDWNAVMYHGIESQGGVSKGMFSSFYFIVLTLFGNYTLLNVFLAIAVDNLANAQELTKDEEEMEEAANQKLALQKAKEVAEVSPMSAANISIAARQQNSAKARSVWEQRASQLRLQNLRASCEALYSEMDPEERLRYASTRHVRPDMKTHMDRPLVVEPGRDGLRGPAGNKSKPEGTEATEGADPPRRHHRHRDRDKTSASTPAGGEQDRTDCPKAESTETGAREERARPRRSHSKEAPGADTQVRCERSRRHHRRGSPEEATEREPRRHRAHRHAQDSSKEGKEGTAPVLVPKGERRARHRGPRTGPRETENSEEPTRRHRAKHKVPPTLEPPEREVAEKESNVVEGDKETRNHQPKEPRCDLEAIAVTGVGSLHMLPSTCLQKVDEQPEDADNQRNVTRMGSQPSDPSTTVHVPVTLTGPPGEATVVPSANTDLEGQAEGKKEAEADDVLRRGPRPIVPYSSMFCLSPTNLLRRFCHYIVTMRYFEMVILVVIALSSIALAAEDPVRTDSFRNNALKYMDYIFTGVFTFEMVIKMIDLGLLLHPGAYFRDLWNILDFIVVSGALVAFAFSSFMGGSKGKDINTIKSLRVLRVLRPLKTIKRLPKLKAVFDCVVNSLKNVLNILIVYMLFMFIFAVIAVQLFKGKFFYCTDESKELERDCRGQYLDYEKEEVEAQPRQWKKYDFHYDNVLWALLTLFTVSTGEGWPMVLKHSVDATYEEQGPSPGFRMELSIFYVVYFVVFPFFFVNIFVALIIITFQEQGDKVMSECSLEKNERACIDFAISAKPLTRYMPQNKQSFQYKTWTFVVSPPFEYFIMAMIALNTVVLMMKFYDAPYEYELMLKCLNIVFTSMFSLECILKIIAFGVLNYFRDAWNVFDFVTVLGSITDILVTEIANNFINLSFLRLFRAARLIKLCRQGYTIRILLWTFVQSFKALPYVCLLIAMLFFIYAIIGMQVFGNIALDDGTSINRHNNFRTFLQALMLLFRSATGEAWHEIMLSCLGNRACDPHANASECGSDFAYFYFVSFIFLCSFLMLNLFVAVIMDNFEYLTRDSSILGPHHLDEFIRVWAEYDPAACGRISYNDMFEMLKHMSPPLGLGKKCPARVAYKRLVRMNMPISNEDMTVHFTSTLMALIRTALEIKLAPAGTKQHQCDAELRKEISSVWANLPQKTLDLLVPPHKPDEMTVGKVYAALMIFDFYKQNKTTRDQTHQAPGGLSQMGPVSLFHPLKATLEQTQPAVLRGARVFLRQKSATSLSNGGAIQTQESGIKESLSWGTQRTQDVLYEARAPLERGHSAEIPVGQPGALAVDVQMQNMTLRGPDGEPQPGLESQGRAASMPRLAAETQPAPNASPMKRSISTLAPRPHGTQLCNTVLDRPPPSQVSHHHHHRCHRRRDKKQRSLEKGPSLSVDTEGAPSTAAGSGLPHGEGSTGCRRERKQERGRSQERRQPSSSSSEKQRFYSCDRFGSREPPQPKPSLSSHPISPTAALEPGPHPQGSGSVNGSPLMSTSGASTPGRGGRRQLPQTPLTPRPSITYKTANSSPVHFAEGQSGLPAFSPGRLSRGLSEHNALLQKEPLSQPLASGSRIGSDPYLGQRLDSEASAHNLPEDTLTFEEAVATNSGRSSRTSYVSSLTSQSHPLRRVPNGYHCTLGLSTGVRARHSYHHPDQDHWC

Compound | IC50
CN[C@@H](CC(C)C)C(=O)N[C@H]1CC[C@@H]2CN(c3ccc(C(F)(F)F)cc3)C[C@@H]21 | 1000 nM
CC(C)N[C@@H](CC(C)(C)C)C(=O)N[C@H]1CC[C@@H]2CN(S(=O)(=O)c3ccc(C(F)(F)F)cc3)C[C@@H]21 | 340 nM

tested on: Rattus norvegicus; assay: Cardiotoxicity in anesthetized rat assessed as decrease in mean arterial pressure at plasma concentration of 1.57 ug/mL; type: toxicity, organism-based; conditions: not given

Compound | Activity
CC(C)N[C@@H](CC(C)(C)C)C(=O)N[C@H]1CC[C@@H]2CN(S(=O)(=O)c3ccc(C(F)(F)F)cc3)C[C@@H]21 | Toxic

target: Voltage-gated L-type calcium channel (Rattus norvegicus, UniProt P22002+Q02485+P27732); assay: Inhibition of L-type calcium channel in rat aorta ring tissue assessed as relaxation of tissue; type: tissue-based; conditions: not given

Compound | IC50
CC(C)N[C@@H](CC(C)(C)C)C(=O)N[C@H]1CC[C@@H]2CN(S(=O)(=O)c3ccc(C(F)(F)F)cc3)C[C@@H]21 | 2600 nM

tested on: Rattus norvegicus; assay: Plasma clearance in rat at 5 umol/kg, iv and 30 umol/kg, po; type: ADME, organism-based; conditions: in vivo

Compound | CL
CC(C)N[C@@H](CC(C)(C)C)C(=O)N[C@H]1CC[C@@H]2CN(S(=O)(=O)c3ccc(C(F)(F)F)cc3)C[C@@H]21 | 33 mL/min/kg

tested on: not listed separately; assay: Volume of distribution at steady state in rat at 5 umol/kg, iv and 5 umol/kg, po; type: ADME, organism-based; conditions: in vivo, read-out: Vdss

Compound | Vd
CN[C@@H](CC(C)C)C(=O)N[C@H]1CC[C@@H]2CN(c3ccc(C(F)(F)F)cc3)C[C@@H]21 | 26.5 L/kg

tested on: not listed separately; assay: Half life in rat at 5 umol/kg, iv and 30 umol/kg, po; type: ADME, organism-based; conditions: in vivo

Compound | half-life
CC(C)N[C@@H](CC(C)(C)C)C(=O)N[C@H]1CC[C@@H]2CN(S(=O)(=O)c3ccc(C(F)(F)F)cc3)C[C@@H]21 | 2.7 h

tested on: not listed separately; assay: Oral bioavailability in rat at 5 umol/kg; type: ADME, organism-based; conditions: in vivo

Compound | bioavailability
CN[C@@H](CC(C)C)C(=O)N[C@H]1CC[C@@H]2CN(c3ccc(C(F)(F)F)cc3)C[C@@H]21 | 83%

target: Voltage-dependent N-type calcium channel subunit alpha-1B (Homo sapiens, UniProt Q00975); assay: Inhibition of N-type Cav2.2 channel (unknown origin) by FLIPR assay; conditions: read-out: IC50
Sequence (Q00975 whole entry): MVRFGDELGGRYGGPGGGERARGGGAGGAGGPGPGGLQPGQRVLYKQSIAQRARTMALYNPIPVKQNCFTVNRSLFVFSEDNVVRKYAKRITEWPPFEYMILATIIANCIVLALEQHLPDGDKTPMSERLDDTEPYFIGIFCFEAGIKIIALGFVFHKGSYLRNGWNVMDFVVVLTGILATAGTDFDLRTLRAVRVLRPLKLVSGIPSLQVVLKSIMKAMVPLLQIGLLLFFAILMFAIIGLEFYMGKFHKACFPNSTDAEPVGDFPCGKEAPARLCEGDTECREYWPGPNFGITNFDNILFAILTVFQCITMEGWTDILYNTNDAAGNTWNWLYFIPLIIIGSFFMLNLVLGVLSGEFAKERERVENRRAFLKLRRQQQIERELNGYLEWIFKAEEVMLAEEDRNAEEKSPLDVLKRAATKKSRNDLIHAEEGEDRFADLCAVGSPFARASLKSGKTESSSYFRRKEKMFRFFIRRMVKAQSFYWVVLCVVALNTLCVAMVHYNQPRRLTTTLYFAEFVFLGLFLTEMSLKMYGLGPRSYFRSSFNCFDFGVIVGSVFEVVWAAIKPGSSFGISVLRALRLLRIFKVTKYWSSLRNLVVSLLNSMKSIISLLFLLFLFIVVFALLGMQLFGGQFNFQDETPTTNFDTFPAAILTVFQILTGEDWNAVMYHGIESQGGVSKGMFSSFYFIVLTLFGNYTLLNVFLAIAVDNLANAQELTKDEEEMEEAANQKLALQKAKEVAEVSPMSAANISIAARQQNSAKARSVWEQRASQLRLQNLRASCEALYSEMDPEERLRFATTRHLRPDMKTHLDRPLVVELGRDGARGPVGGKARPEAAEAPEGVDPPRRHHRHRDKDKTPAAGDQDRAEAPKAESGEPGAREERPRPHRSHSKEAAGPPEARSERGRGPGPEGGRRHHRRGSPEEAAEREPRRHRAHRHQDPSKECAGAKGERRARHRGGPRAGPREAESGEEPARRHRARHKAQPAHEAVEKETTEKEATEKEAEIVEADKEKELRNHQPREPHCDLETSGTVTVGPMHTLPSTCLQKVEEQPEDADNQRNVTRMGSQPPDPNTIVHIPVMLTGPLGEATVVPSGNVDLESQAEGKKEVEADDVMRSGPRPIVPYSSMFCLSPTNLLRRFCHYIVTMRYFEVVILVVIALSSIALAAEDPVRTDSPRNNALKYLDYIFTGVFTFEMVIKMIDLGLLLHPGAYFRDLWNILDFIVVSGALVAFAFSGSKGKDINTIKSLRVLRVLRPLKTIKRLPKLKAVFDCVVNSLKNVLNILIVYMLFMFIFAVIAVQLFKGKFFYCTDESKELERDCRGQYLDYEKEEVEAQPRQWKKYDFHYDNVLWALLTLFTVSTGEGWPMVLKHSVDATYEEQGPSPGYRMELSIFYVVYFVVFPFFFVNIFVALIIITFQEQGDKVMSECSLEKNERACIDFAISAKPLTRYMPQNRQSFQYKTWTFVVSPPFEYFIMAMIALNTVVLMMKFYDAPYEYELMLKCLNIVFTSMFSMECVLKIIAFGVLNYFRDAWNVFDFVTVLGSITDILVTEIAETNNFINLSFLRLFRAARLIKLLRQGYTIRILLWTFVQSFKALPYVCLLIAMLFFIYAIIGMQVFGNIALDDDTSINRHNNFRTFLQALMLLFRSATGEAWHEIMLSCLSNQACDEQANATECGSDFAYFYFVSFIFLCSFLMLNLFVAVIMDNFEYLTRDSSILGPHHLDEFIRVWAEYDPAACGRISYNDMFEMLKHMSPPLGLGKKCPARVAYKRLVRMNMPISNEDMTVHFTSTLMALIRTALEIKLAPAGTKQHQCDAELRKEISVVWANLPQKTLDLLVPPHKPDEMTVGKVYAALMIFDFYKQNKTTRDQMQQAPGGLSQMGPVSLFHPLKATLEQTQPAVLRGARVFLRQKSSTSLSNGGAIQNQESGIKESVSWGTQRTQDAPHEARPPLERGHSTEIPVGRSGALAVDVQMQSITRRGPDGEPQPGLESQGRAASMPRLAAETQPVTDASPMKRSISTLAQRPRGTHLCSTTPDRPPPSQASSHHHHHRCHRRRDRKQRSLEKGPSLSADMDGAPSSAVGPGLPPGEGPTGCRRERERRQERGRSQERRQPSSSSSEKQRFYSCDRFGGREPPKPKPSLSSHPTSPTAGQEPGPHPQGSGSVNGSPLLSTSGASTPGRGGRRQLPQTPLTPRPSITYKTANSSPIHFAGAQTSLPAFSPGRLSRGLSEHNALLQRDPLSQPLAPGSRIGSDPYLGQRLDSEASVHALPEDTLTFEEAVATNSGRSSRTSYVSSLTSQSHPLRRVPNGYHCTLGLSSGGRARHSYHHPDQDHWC

Compound | IC50
CN[C@@H](CC(C)C)C(=O)N[C@H]1CC[C@@H]2CN(c3ccc(C(F)(F)F)cc3)C[C@@H]21 | 1240 nM

species: Rattus norvegicus; assay: Analgesic activity in rat capsaicin secondary mechanical hyperalgesia pain model; type: functional; conditions: not given

Compound | ED50
CC(C)N[C@@H](CC(C)(C)C)C(=O)N[C@H]1CC[C@@H]2CN(S(=O)(=O)c3ccc(C(F)(F)F)cc3)C[C@@H]21 | 13 mg/kg

species: Rattus norvegicus; assay: Analgesic activity in rat chronic constriction injury-induced neuropathic pain model; type: functional; conditions: not given

Compound | ED50
CN[C@@H](CC(C)C)C(=O)N[C@H]1CC[C@@H]2CN(c3ccc(C(F)(F)F)cc3)C[C@@H]21 | 10 mg/kg
CC(C)N[C@@H](CC(C)(C)C)C(=O)N[C@H]1CC[C@@H]2CN(S(=O)(=O)c3ccc(C(F)(F)F)cc3)C[C@@H]21 | 32 mg/kg

tested on: Rattus norvegicus; assay: AUC in rat at 30 umol/kg, po; type: ADME, organism-based, Plasma; conditions: in vivo

Compound | AUC
CC(C)N[C@@H](CC(C)(C)C)C(=O)N[C@H]1CC[C@@H]2CN(S(=O)(=O)c3ccc(C(F)(F)F)cc3)C[C@@H]21 | 240 ng·h/mL

tested on: not listed separately; assay: AUC in rat at 5 umol/kg, po; type: ADME, organism-based; conditions: plasma

Compound | AUC
CN[C@@H](CC(C)C)C(=O)N[C@H]1CC[C@@H]2CN(c3ccc(C(F)(F)F)cc3)C[C@@H]21 | 799 ng·h/mL

target: T1, Voltage-dependent N-type calcium channel subunit alpha-1B; assay: Inhibition of rat N-type Cav2.2 channel expressed in HEK293 cells under hyperpolarized condition by whole cell patch-clamp manual electrophysiology assay; type: cell-based; conditions: not given

Compound | IC50
CN[C@@H](CC(C)C)C(=O)N[C@H]1CC[C@@H]2CN(c3ccc(C(F)(F)F)cc3)C[C@@H]21 | 4400 nM
CC(C)N[C@@H](CC(C)(C)C)C(=O)N[C@H]1CC[C@@H]2CN(S(=O)(=O)c3ccc(C(F)(F)F)cc3)C[C@@H]21 | 340 nM

tested on: not listed separately; assay: Solubility of the compound by chemiluminescent nitrogen detection method; conditions: not given

Compound | solubility
CN[C@@H](CC(C)C)C(=O)N[C@H]1CC[C@@H]2CN(c3ccc(C(F)(F)F)cc3)C[C@@H]21 | 33 µM (≈ 13.1 µg/mL)

tested on: not listed separately; assay: Metabolic stability in human liver microsomes assessed as compound remaining after 30 mins; type: ADME, Microsome; conditions: read-out: Stability

Compound | remaining at 0.5 h
CN[C@@H](CC(C)C)C(=O)N[C@H]1CC[C@@H]2CN(c3ccc(C(F)(F)F)cc3)C[C@@H]21 | > 85%
CC(C)N[C@@H](CC(C)(C)C)C(=O)N[C@H]1CC[C@@H]2CN(S(=O)(=O)c3ccc(C(F)(F)F)cc3)C[C@@H]21 | 79.6%

tested on: not listed separately; assay: Volume of distribution at steady state in rat at 5 umol/kg, iv and 30 umol/kg, po; type: ADME, organism-based; conditions: in vivo, read-out: Vdss

Compound | Vd
CC(C)N[C@@H](CC(C)(C)C)C(=O)N[C@H]1CC[C@@H]2CN(S(=O)(=O)c3ccc(C(F)(F)F)cc3)C[C@@H]21 | 7.1 L/kg

tested on: not listed separately; assay: Ratio of drug level brain to plasma in rat at 3 umol/kg, ip after 30 mins; type: ADME, organism-based; conditions: read-out: BPR

Compound | Kp at 0.5 h
CN[C@@H](CC(C)C)C(=O)N[C@H]1CC[C@@H]2CN(c3ccc(C(F)(F)F)cc3)C[C@@H]21 | 16.5

species: Rattus norvegicus; assay: Analgesic activity in rat monoiodoaceate-induced osteoarthritis pain model; type: functional; conditions: not given

Compound | ED50
CN[C@@H](CC(C)C)C(=O)N[C@H]1CC[C@@H]2CN(c3ccc(C(F)(F)F)cc3)C[C@@H]21 | 3 mg/kg
CC(C)N[C@@H](CC(C)(C)C)C(=O)N[C@H]1CC[C@@H]2CN(S(=O)(=O)c3ccc(C(F)(F)F)cc3)C[C@@H]21 | 8 mg/kg

tested on: not listed separately; assay: Half life in rat at 5 umol/kg, iv and 5 umol/kg, po; type: ADME, organism-based; conditions: in vivo

Compound | half-life
CN[C@@H](CC(C)C)C(=O)N[C@H]1CC[C@@H]2CN(c3ccc(C(F)(F)F)cc3)C[C@@H]21 | 15.4 h

tested on: not listed separately; assay: Metabolic stability in rat liver microsomes assessed as compound remaining after 30 mins; type: ADME, Microsome; conditions: read-out: Stability

Compound | remaining at 0.5 h
CN[C@@H](CC(C)C)C(=O)N[C@H]1CC[C@@H]2CN(c3ccc(C(F)(F)F)cc3)C[C@@H]21 | > 85%
CC(C)N[C@@H](CC(C)(C)C)C(=O)N[C@H]1CC[C@@H]2CN(S(=O)(=O)c3ccc(C(F)(F)F)cc3)C[C@@H]21 | 64.3%
